Experimental data as given in patent publication US20100233701A1, “Use of non-clonal chromosomal aberrations for cancer research and clinical diagnosis” (priority 2008, published 2010).
Peptide text beside a SMILES is read from it. * marks the point of attachment. Cbz = O=C(OCc1ccccc1)*; CH2F = FC*

What was measured:
ER stress pathways = experiment: ER stress agents, western blot and SKY analysis of NCCAs; assay type: cell-based; conditions: for NCCA levels: SKY analysis following a short period of culture; for ER stress pathway activation: western blot analysis following the drug treatment
From the text: The inventors herein then determined to use a more defined stress condition to validate the link between the stress and the genome evolution. Since the endoplasmic reticulum (ER) has an important role in sensing cellular stress, and the ER stress is well studied, the inventors hypothesize that the defined ER stress will also generate elevated NCCAs leading to the formation of new karyotypes. Specific agents were used to target specific pathways of ER stress including tharpsigargin, tunicamycin and DTT. Tunicamycin interferes with glycalation and results in induction of ER stress. Tharpsigargin inhibits the endoplasmic reticulum calcium ATPase, and results in the release of calcium from the ER, and DTT induces reductive stress through its activity in breaking disulfide bonds which leads to induction of the unfolded protein response. […] As illustrated, the specific ER stress pathways were indeed active in three treatments.

mitotic cells = experiment: Induction of chromosome fragmentation (fragmentation index, cytogenetic scoring); assay type: cell-based
Method: Induction of chromosome fragmentation. After 3 to 8 h treatment of colcemid, mitotic cells were gently shaken off and resuspended in culture medium containing colcemid. Cells were then treated with doxorubicin or methotrexate at 1 μg/mL for various times. Cytogenetic examination. Cells were harvested and cytogenetic slides were prepared using standard protocols. Slides were stained by Giemsa for scoring nuclear structures or stored at −20° C. for further characterization including spectral karyotyping (SKY) and antibody staining. The fragmentation index was determined by dividing the number of cells displaying chromosome fragmentation by the total number of mitotic cells, including cells undergoing chromosome fragmentation.

MDA-MB-231 = experiment: SKY analysis of NCCAs after proteasome inhibitor treatment; assay type: cell-based; conditions: immediately following treatment
From the text: (§1) Following probe denaturation, hybridization and SKY detection, randomly selected mitotic figures were photographed and analyzed by SKY imaging software. Fifty to hundred SKY images were captured for each cell population to identify commonly shared karyotype features and to reveal the karyotypic diversity of these various cell populations. NCCAs were scored by identifying chromosomal numbers, chromosome translocations/large deletions or other types of abnormality detected within a given mitotic cell. There are two steps needed to score frequencies of NCCAs and CCAs. First, a 4% cutoff line is used to identify any specific recurrent karyotypes or CCAs. The frequency of a CCA is determined by calculating the number of cells displaying the same CCA divided by the total cells examined (50-100). Non-clonal karyotypes (NCCAs) are classified as having a frequency lower than 4%. The total frequencies of NCCAs of a given cell population is then calculated by using all cells displaying NCCAs divided by the total cells examined.
(§2) 5. A comparison of specific and non-specific drugs that target the same pathway: In order to compare directly the effects of challenging the same molecular pathway with specific or nonspecific drug treatments with regard to genome system stability and evolution, the protein degradation pathway was chosen. Two proteasome inhibitors, Bortezomib (also named Velcade or PS-341) and MG132 were used. […] Compared to 132, Bortezomib is more specific. Two breast cancer cell lines, MDA-MB-231 and BT549, were used for this comparison. […] After a few weeks culture, there seemed to be no drastic changes in terms of the formation of new karyotypes.

BT549 = experiment: as above; assay type: cell-based; conditions: following treatment
From the text: as §1, §2

[1] = system: OV433 and TOV112D cell lines; experiment: Selection of cisplatin resistant clones, karyotypes by SKY; assay type: cell-based; conditions: 6-9 months of selection by gradually increased concentrations
Method: 3. Less specific targeted drugs can cause karyotypic changes: A well accepted mechanism of drug resistance acquisition is a specific gene mutation linked to a defined molecular pathway such as the cell death pathway, multiple drug resistance pathway or chromosomal machinery that is responsible for genome integrity. In order to test such a mechanism in the context of genome system evolution, well characterized ovarian cancer cell lines were treated with cisplatin, which is a drug commonly used to treat various types of cancers. The mechanism of this drug is thought to be binding and cross-linking of DNA by platinum complexes, which ultimately triggers apoptosis. The mechanisms of cisplatin resistance have been proposed to include changes in cellular uptake, increased detoxification of the drug, inhibition of apoptosis and increased DNA repair.
The karyotypes were examined by SKY and some key pathways possibly related to the acquisition of drug resistance in the clones were analyzed by western blots.

cell population = experiment: High stress drug treatment, NCCAs and karyotypes; assay type: cell-based; conditions: immediately after treatment of a high dosage
From the text: First, the same cell line was used with both “high” and “low” levels of stress applied respectively. High stress was applied through chemo-therapy drug treatments (doxorubicin) (Dox) while low stress was generated by altering culture conditions. […] This was illustrated by the drastically altered karyotypes in every cell examined, which persisted until certain karyotypes became dominant (completing the transition from high levels of NCCAs to specific CCAs) following at least 6 weeks of culture in a drug free medium.

HCT116 14-3-3−/− cells = experiment: Mitotic catastrophe model, doxorubicin, scored for chromosome fragmentation; assay type: cell-based; conditions: low dose of doxorubicin
Method: (§3) Induction of mitotic catastrophe. Mitotic catastrophe was induced as herein described. HCT116 14-3-3−/− cells were treated for up to 72 h with 2 μg/mL doxorubicin and HCT116 p53−/−. The cells were treated with 1 μg/mL aphidicolin for up to 96 h and were each harvested every 24 h. Cytogenetic preparations and cytospin preparations were made allowing for chromosomal and morphologic analysis.
(§4) The present mitotic cell death process differs from previously described mitotic catastrophe. Mitotic catastrophe has been loosely defined as cell death that results from aberrant mitoses. […] Not only do the definitions of mitotic catastrophe differ but there is also a lack of morphologic characterization of chromosomes from cells undergoing mitotic catastrophe. […] Cells were induced to undergo mitotic catastrophe according to published reports. Half of the cells were prepared using reported protocols and half were prepared according to standard cytogenetic procedure to score chromosome fragmentation frequency.

HCT116 p53−/− cells [2] = conditions: 72 h, reported; cited from earlier work
HCT116 p53−/− cells [3] = experiment: Mitotic catastrophe model, aphidicolin, scored for chromosome fragmentation; assay type: cell-based; conditions: for mitotic fraction: conventional cytogenetic analysis
Method: as §3, §4

caspase-3 = biological target: T1, caspase-3 (Homo sapiens, UniProt P42574); experiment: Caspase-3 colorimetric activity assay; assay type: cell-based; conditions: 20 μmol/L, cells treated with colcemid and doxorubicin
T1 construct: endogenous in cells; host or cells: HCT116
T1 sequence (P42574 29-175 limits assumed): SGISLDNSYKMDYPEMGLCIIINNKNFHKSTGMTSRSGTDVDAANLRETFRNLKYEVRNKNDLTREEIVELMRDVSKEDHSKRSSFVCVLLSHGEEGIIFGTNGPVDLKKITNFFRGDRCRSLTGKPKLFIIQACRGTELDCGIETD
T1 sequence (P42574 176-277 limits assumed): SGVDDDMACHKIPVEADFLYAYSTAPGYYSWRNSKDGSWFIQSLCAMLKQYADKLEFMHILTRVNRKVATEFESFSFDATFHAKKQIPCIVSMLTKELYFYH
Method: Caspase-3 activity. Caspase-3 activity was measured using the caspase-3 colorimetric assay kit from R&D Systems as herein described. HCT116 cells were treated for 8 h with colcemid with and without z-vad-fmk. Mitotic cells were then shaken off and treated with doxorubicin for an additional 6 h and 12 h.

HCT116 cells = experiment: Caspase inhibition during induced chromosome fragmentation; assay type: cell-based; conditions: pretreatment with z-vad-fmk, then colcemid and doxorubicin, 6 and 12 h
Method: Cytogenetic examination. Cells were harvested and cytogenetic slides were prepared using standard protocols. Slides were stained by Giemsa for scoring nuclear structures or stored at −20° C. for further characterization including spectral karyotyping (SKY) and antibody staining. The fragmentation index was determined by dividing the number of cells displaying chromosome fragmentation by the total number of mitotic cells, including cells undergoing chromosome fragmentation.
Caspase inhibition. Caspase activity was inhibited by treatment of HCT116 cells for 12 h with […] z-vad-fmk followed induction of chromosome fragmentation (by concurrent treatment with colcemid and 1 μg/mL doxorubicin) for 6 or 12 h in the presence of or after removal of z-vad-fmk. Following treatment, cytogenetic slides were made and scored.

[4] = system: cisplatin resistance cell line; experiment: SKY analysis of NCCAs after Bcl-2 inhibitor treatment; assay type: cell-based
From the text: as §1
4. […] To examine this issue, TW-37, a small-molecule inhibitor drug that specifically binds to and inhibits Bcl-2 was used in a cisplatin resistance cell line that was previously tested. Under treatment conditions resulting in 50% cell death, surviving cells of two cell lines were followed with SKY analysis. […]

O[C@@H](CS)[C@@H](O)CS [DTT]
NCCA levels (ER stress pathways): elevated NCCAs were observed
ER stress pathway activation (ER stress pathways): indeed active

CN(Cc1cnc2nc(N)nc(N)c2n1)c1ccc(C(=O)N[C@@H](CCC(=O)O)C(=O)O)cc1 [methotrexate]
induction of chromosome fragmentation (mitotic cells): can induce chromosome fragmentation

CC(C)C[C@@H](C=O)NC(=O)[C@H](CC(C)C)NC(=O)[C@H](CC(C)C)NC(=O)OCc1ccccc1 [MG132] (Cbz-Leu-Leu-Leu-aldehyde)
NCCAs (MDA-MB-231): showed an increase in NCCAs
NCCA frequencies (BT549): failed to generate increased NCCA frequencies

N.N.[Cl][Pt][Cl] [cisplatin]
karyotypes of drug resistant clones [1]: drastically different karyotypes

CC(C)C[C@H](NC(=O)[C@H](Cc1ccccc1)NC(=O)c1cnccn1)B(O)O [Bortezomib]
NCCAs (MDA-MB-231): showed an increase in NCCAs
NCCA frequencies (BT549): failed to generate increased NCCA frequencies

COc1cccc2c1C(=O)c1c(O)c3c(c(O)c1C2=O)C[C@@](O)(C(=O)CO)C[C@@H]3O[C@H]1C[C@H](N)[C@H](O)[C@H](C)O1 [doxorubicin]
level of NCCAs (cell population): a high level of NCCAs was quickly detected
induction of chromosome fragmentation (mitotic cells): can induce chromosome fragmentation
chromosome fragmentation in interphase cells (mitotic cells; interphase cells, doxorubicin and colcemid preceded by a double thymidine block, up to 24 h): no chromosome fragmentation was observed
mitotic cells showing a degree of chromosome fragmentation (mitotic cells; mitotic shake-off cells arrested with colcemid, concurrent doxorubicin, within 12 h): ~100%
phosphorylated H3 staining (HCT116 14-3-3−/− cells): only a very small fraction of cells show any positive signal
chromosome fragmentation (HCT116 14-3-3−/− cells; conventional cytogenetic protocols): chromosome fragmentation was not evident

C[C@@]1(CO)[C@H](O)CC[C@@]2(C)[C@H]1CC[C@H]1C[C@@H]3C[C@@]12CC[C@]3(O)CO [aphidicolin]
cells died (HCT116 p53−/− cells [2]): 40%
mitotic fraction (HCT116 p53−/− cells [3]; 72 h): 3.2%
chromosome breaks (HCT116 p53−/− cells [3]; 96 h): evident in the majority of chromosome spreads
mitotic fraction (HCT116 p53−/− cells [3]; 96 h): 5.4%

COC(=O)C[C@H](NC(=O)[C@H](C)NC(=O)[C@@H](NC(=O)OCc1ccccc1)C(C)C)C(=O)CF [z-vad-fmk] (Cbz-Val-Ala-Asp(OMe)-CH2F)
caspase-3 reactivity (caspase-3): largely inhibited
chromosome fragmentation frequency upon caspase inhibition (HCT116 cells): not significantly altered

tunicamycin
NCCA levels (ER stress pathways): elevated NCCAs were observed
ER stress pathway activation (ER stress pathways): indeed active

CC(C)c1ccccc1Cc1cc(C(=O)Nc2ccc(S(=O)(=O)c3ccccc3C(C)(C)C)cc2)c(O)c(O)c1O [TW-37]
formation of new karyotypes ([4]; after a few weeks of culture): new stable karyotypes were detected
frequencies of NCCAs ([4]; treatment conditions resulting in 50% cell death, surviving cells of two cell lines): increased

tharpsigargin
NCCA levels (ER stress pathways): elevated NCCAs were observed
ER stress pathway activation (ER stress pathways): indeed active
